The record followed here is patent US11542249B2, “BTK inhibitor compounds” (Eli Lilly and Company, priority 2017, dated 2023).

One experiment has as its target human BTK (Homo sapiens (Human), UniProt Q06187). The experiment is described as follows: BTK LANTHASCREEN Eu Kinase Binding Assay. The conditions noted are these: IC50 value ± standard deviation; full-length His-labeled BTK, kinase tracer 236; read-out: hBTK Rel IC50. As for the experimental part: (§1) BTK and EGFR in Vitro Assays:
(§2) The BTK and EGFR biochemical assays utilize LANTHASCREEN® Eu Kinase Binding Assays from Thermo Fisher Scientific, measuring the binding of the kinase with a […] tracer. The assay buffer consists of 50 mM HEPES pH 7.5, 0.01% BRU™-35, 10 mM MgCl2, 1 mM EGTA, and 1 mM DTT. The test compounds are diluted and added to the assay plate with a Labcyte ECHO® 555 liquid handler. The compounds are tested in 10 point dose response curves (100 μM-0.005 μM) with a maximum DMSO concentration of 1%. The assays are performed in 20 μL in low-volume 384-well white proxiplates. For the BTK assay, the concentration of full-length His-labeled BTK in the assay is 5 nM, the Eu-anti-His antibody is 2 nM, and the kinase tracer 236 is 60 nM. For the EGFR assay, the concentration of truncated (amino acids 668-1210) GST-labeled EGFR is 5 nM, the Eu-anti-GST antibody is 2 nM, and the kinase tracer 199 is 10 nM. The components of the assay (compound, enzyme/antibody, tracer) are assembled and incubated for 30 min prior to being read on a Perkin-Elmer EnVision with excitation at 340 nm, tracer emission at 665 nm, and antibody emission at 615 nm. The signal ratio is converted to percent inhibition using the following equation: % Inhibition=100−[(Test Compound−Median Minimum)/(Median Maximum−Median Minimum)×100].
(§3) The following Table 1 and Table 2 describes the relative IC50 data vs. human BTK, human EGFR, and human whole blood CD69.
(In general: Time-resolved FRET reads energy transfer from a long-lived donor to a nearby acceptor.)

Another experiment has as its target human EGFR (Homo sapiens (Human), UniProt P00533). Briefly: EGFR LANTHASCREEN Eu Kinase Binding Assay. The conditions noted are these: IC50 value ± standard deviation; truncated GST-labeled EGFR, kinase tracer 199; read-out: hEGFR Rel IC50. The protocol:
as §1, §2

Experiment [1] concerns activated B cells in human whole blood (CD69). Briefly: Human Whole Blood CD69 in vitro assay (B cell activation, flow cytometry). Type of experiment: cell-based. The conditions noted are these: IC50 value ± standard deviation, anti-human-IgD-Dextran stimulation, read-out: HWB CD69 Rel IC50. The protocol:
Human Whole Blood CD69 in Vitro Assay:
The HWB CD69 assay measures activated B cells in human whole blood using a flow cytometer. Compounds are diluted and added to assay plates with a Labcyte ECHO® 555 liquid handler. Compounds are tested in 10 point dose response curves (20 μM-0.001 μM) in 96-well v-bottom plates with a maximum DMSO concentration of 0.2%. Fresh blood from individual healthy volunteer is mixed with HEPES (0.5 ml HEPES added per 10 ml blood) and 100 μl/well is added to compound plates. The plates are sealed and incubated in a 37° C. incubator for 3 h. Anti-human-IgD-Dextran is added to each well to give a final concentration of 100 ng/ml, mixed, and put back into the incubator. After 1 h, the cells are washed with cold FACS buffer and transferred to a deep well plate. The cells are incubated with anti-human CD69-PE (BIOLEGEND®, clone FN50) and anti-human CD19-APC (BIOLEGEND®, clone HIB19) antibodies on ice for 20 min. The cells are washed and incubated in eBioscience™ 1-step Fix/Lyse solution (10×) at RT to lyse the red blood cells and fix the other cells. The white cells are pelleted and washed in FACS buffer and then brought up in read buffer. The suspended cells are transferred to 96-well round bottom plates and read on an IntelliCyt iQue® Screener Plus flow cytometer. From the SSC (Side Scatter Channel) vs FSC (Forward Scatter Channel) graph, the lymphocytes are identified. Lymphocytes are identified with gated on positive CD19 marker for quantify CD69 (a marker of activated B lymphocytes) MFI (mean fluorescent intensity/cell). The signal ratio is converted to percent inhibition using the following equation: % Inhibition=100−[(Test Compound−Median Min)/(Median Max−Median Min)×100].
as §3
A general note: A flow cytometer gives signals particle by particle.

As usually defined, the IC50 is the concentration that gives 50% inhibition.

Sequence of human BTK (Q06187 whole entry): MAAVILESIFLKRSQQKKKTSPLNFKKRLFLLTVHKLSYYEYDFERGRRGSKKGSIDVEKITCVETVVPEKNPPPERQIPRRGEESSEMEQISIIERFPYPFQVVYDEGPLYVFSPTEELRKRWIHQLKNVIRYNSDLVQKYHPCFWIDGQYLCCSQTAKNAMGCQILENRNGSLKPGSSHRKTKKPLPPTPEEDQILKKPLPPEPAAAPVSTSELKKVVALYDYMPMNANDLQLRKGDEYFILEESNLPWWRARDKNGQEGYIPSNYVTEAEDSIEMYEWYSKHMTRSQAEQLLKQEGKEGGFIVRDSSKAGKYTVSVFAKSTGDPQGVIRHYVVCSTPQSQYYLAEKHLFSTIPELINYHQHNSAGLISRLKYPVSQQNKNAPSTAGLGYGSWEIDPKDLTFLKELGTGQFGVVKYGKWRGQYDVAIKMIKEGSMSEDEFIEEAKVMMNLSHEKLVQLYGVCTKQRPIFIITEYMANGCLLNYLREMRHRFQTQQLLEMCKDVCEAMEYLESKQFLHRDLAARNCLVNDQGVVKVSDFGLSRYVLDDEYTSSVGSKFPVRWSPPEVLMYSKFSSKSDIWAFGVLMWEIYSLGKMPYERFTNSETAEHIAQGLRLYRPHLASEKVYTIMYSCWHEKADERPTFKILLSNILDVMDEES
Sequence of human EGFR (P00533 668-1210): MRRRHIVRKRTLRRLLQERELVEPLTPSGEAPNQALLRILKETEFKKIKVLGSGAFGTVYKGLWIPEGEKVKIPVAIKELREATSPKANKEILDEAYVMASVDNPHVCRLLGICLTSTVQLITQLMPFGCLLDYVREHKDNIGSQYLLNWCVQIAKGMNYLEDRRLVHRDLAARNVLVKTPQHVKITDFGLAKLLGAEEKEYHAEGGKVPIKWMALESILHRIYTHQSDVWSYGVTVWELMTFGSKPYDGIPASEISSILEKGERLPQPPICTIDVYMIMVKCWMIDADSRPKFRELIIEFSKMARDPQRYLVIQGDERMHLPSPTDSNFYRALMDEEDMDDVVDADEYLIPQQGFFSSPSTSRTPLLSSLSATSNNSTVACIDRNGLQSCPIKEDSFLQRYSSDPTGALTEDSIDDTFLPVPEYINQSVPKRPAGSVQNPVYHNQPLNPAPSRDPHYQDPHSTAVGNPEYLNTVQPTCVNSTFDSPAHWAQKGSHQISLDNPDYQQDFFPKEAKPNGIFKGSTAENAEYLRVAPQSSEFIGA

Regarding `C=CC(=O)N1CC[C@H](Nc2cncc(-c3cnc(Oc4cccc(Cl)c4)nc3)c2)C1` [Example 6, 1-[(3S)-3-[[5-[2-(3-chlorophenoxy)pyrimidin-5-yl]-3-pyridyl]amino]pyrrolidin-1-yl]prop-2-en-1-one], the IC50 on human BTK came to 72.4 ± 4.22 nM; on human EGFR, 5180 ± 441 nM; in experiment [1], 671 ± 236 nM.

On to `C=CC(=O)N1CCC(Nc2cncc(-c3cnc(Nc4cccc(C)n4)nc3)c2)CC1` [Example 20, 1-[4-[[5-[2-[(6-methyl-2-pyridyl)amino]pyrimidin-5-yl]-3-pyridyl]amino]-1-piperidyl]prop-2-en-1-one], for which the figures for the half-inhibitory concentration (IC50) (on human BTK; at human EGFR; in experiment [1]) were 16.9 ± 3.93 nM, 2220 ± 649 nM and 208 ± 132 nM, respectively.

Take `C=CC(=O)N1CC[C@H](Nc2cncc(-c3cnc(Nc4cccc(Cl)c4)nc3)c2)C1` [Example 15]: the IC50 on human BTK worked out at 6.01 ± 0.579 nM; at human EGFR, 1370 ± 1210 nM; in experiment [1], 219 ± 86 nM.

`C=CC(=O)N1CC(Nc2cncc(-c3cnc(Oc4ccccc4)nc3)n2)C1` [Example 28, 1-[3-[[6-(2-phenoxypyrimidin-5-yl)pyrazin-2-yl]amino]azetidin-1-yl]prop-2-en-1-one]: the IC50 stood at 42.9 ± 5.09 nM on human BTK, 1470 ± 209 nM at human EGFR and 742 ± 323 nM in experiment [1].

In the case of `C=CC(=O)N1CC(Nc2cncc(-c3cnc(Oc4cccc(C(F)(F)F)c4)nc3)n2)C1` [Example 26, 1-[3-[[6-[2-[3-(trifluoromethyl)phenoxy]pyrimidin-5-yl]pyrazin-2-yl]amino]azetidin-1-yl]prop-2-en-1-one], the IC50 on human BTK was 30.2 ± 4.32 nM; at human EGFR, 4030 ± 1920 nM; in experiment [1], 490 ± 255 nM.

On to `C=CC(=O)N1CCC(Nc2cncc(-c3cnc(Nc4ccccn4)nc3)c2)CC1` [Example 22, 1-[4-[[5-[2-(2-pyridylamino)pyrimidin-5-yl]-3-pyridyl]amino]-1-piperidyl]prop-2-en-1-one], for which the IC50 amounted to 31 ± 12.4 nM at human BTK, 3390 ± 2070 nM on human EGFR and 227 ± 81.1 nM in experiment [1].

Regarding `C=CC(=O)N1CC[C@H](Nc2cncc(-c3cnc(Nc4cccc(C)n4)nc3)c2)C1` [Example 17, 1-{(3S)-3-[(5-{2-[(6-methylpyridin-2-yl)amino]pyrimidin-5-yl}pyridin-3-yl)amino]pyrrolidin-1-yl}prop-2-en-1-one], the IC50 in experiment [1] was determined as 242 ± 64.3 nM.

For `C=CC(=O)N1CC(Nc2cncc(-c3cnc(Oc4cccc(OC(F)F)c4)nc3)c2)C1` [Example 4, 1-[3-[[5-[2-[3-(difluoromethoxy)phenoxy]pyrimidin-5-yl]-3-pyridyl]amino]azetidin-1-yl]prop-2-en-1-one], the results for the IC50 (on human BTK; at human EGFR; in experiment [1]) were 9.98 ± 4.3 nM, 872 ± 456 nM and 110 ± 79.4 nM, respectively.

On to `C=CC(=O)N1CCC(Nc2cncc(-c3cnc(Oc4cccc(OC(F)F)c4)nc3)n2)CC1` [Example 38, 1-[4-[[6-[2-[3-(difluoromethoxy)phenoxy]pyrimidin-5-yl]pyrazin-2-yl]amino]-1-piperidyl]prop-2-en-1-one], for which the results for the concentration for half-maximal inhibition (IC50) (on human BTK; at human EGFR; in experiment [1]) were 6.89 ± 0.835 nM, 908 ± 546 nM and 66.6 ± 19.9 nM, respectively.

For the compound `C=CC(=O)N1CC(Nc2cncc(-c3cnc(Oc4ccc(Cl)cc4)nc3)n2)C1` [Example 41, 1-[3-[[6-[2-(4-chlorophenoxy)pyrimidin-5-yl]pyrazin-2-yl]amino]azetidin-1-yl]prop-2-en-1-one], the half-inhibitory concentration (IC50) at human BTK stood at 96.8 ± 15.6 nM; at human EGFR, 2110 ± 487 nM; in experiment [1], 2160 ± 420 nM.

Consider `C=CC(=O)N1CC(Nc2cncc(-c3cnc(Oc4cccc(OC(F)(F)F)c4)nc3)c2)C1` [Example 10, 1-[3-[[5-[2-[3-(trifluoromethoxy)phenoxy]pyrimidin-5-yl]-3-pyridyl]amino]azetidin-1-yl]prop-2-en-1-one], for which the IC50 at human BTK was found to be 34.5 ± 8.08 nM; in experiment [1] it was 263 ± 129 nM.

As for `C=CC(=O)N1CC(Nc2cncc(-c3cnc(Nc4ccc(F)c(Cl)c4)nc3)n2)C1` [Example 35, 1-[3-[[6-[2-(3-chloro-4-fluoro-anilino)pyrimidin-5-yl]pyrazin-2-yl]amino]azetidin-1-yl]prop-2-en-1-one], the IC50 at human BTK is < 5 nM; at human EGFR it was 37.3 ± 26.1 nM; in experiment [1] it was 107 ± 45.4 nM.

With `CN(C)C/C=C/C(=O)N1CCC(Nc2cncc(-c3cnc(Nc4cccc(Cl)c4)nc3)n2)CC1` [Example 46, (E)-1-[4-[[6-[2-(3-chloroanilino)pyrimidin-5-yl]pyrazin-2-yl]amino]-1-piperidyl]-4-(dimethylamino)but-2-en-1-one], the IC50 was < 5 nM at human BTK, 6040 ± 2090 nM at human EGFR and 157 ± 52.3 nM in experiment [1].

Regarding `C=CC(=O)N1CC(Nc2cncc(-c3cnc(Nc4cccc(C)n4)nc3)n2)C1` [Example 40, 1-[3-[[6-[2-[(6-methyl-2-pyridyl)amino]pyrimidin-5-yl]pyrazin-2-yl]amino]azetidin-1-yl]prop-2-en-1-one], the figures for the half-inhibitory concentration (IC50) (at human BTK; on human EGFR; in experiment [1]) were 5.58 ± 0.182 nM, 54.9 ± 15.4 nM and 144 ± 53.4 nM, respectively.

Turning to `CN(C)C/C=C/C(=O)N1CCC(Nc2cncc(-c3cnc(Nc4cccc(Cl)c4)nc3)c2)CC1` [Example 23, (E)-1-[4-[[5-[2-(3-chloroanilino)pyrimidin-5-yl]-3-pyridyl]amino]-1-piperidyl]-4-(dimethylamino)but-2-en-1-one], the results for the concentration for half-maximal inhibition (IC50) (on human BTK; at human EGFR; in experiment [1]) were 24.1 ± 4.28 nM, 26500 ± 2880 nM and 475 ± 166 nM, respectively.

Consider `C=CC(=O)N1CC[C@H](Nc2cncc(-c3cnc(Nc4cccc(OC(F)F)c4)nc3)n2)C1` [Example 39, 1-[(3S)-3-[[6-[2-[3-(difluoromethoxy)anilino]pyrimidin-5-yl]pyrazin-2-yl]amino]pyrrolidin-1-yl]prop-2-en-1-one], for which the figures for the IC50 (on human BTK; at human EGFR; in experiment [1]) were 5.6 nM, 1460 ± 200 nM and 103 ± 60.6 nM, respectively.

Consider `C=CC(=O)N1CC[C@H](Nc2cncc(-c3cnc(Nc4ccccc4OC(F)(F)F)nc3)n2)C1` [Example 36, 1-[(3S)-3-[[6-[2-[2-(trifluoromethoxy)anilino]pyrimidin-5-yl]pyrazin-2-yl]amino]pyrrolidin-1-yl]prop-2-en-1-one], for which the results for the IC50 (on human BTK; at human EGFR; in experiment [1]) were 6.72 ± 1.7 nM, 15200 ± 654 nM and 161 ± 71 nM, respectively.

For the compound `C=CC(=O)N1CC(Nc2cncc(-c3cnc(Oc4cccc(F)c4)nc3)c2)C1` [Example 11, 1-[3-[[5-[2-(3-fluorophenoxy)pyrimidin-5-yl]-3-pyridyl]amino]azetidin-1-yl]prop-2-en-1-one], the values for the concentration for half-maximal inhibition (IC50) (at human BTK; at human EGFR; in experiment [1]) were 18.1 ± 3.05 nM, 644 ± 61.8 nM and 242 ± 91.2 nM, respectively.

In the case of `CN(C)C/C=C/C(=O)N1CCC(Nc2cncc(-c3cnc(Oc4cccc(Cl)c4)nc3)n2)CC1` [Example 45, (E)-1-[4-[[6-[2-(3-chlorophenoxy)pyrimidin-5-yl]pyrazin-2-yl]amino]-1-piperidyl]-4-(dimethylamino)but-2-en-1-one], the figures for the IC50 (on human BTK; on human EGFR; in experiment [1]) were 43.8 ± 4.17 nM, 52600 ± 28800 nM and 466 ± 159 nM, respectively.

As for `C=CC(=O)N1CC(Nc2cncc(-c3cnc(Oc4cccc(C#N)c4)nc3)c2)C1` [Example 3, 3-[5-[5-[(1-prop-2-enoylazetidin-3-yl)amino]-3-pyridyl]pyrimidin-2-yl]oxybenzonitrile], the half-maximal inhibitory concentration (IC50) in experiment [1] was found to be 595 ± 326 nM.

For `C=CC(=O)N1CC[C@H](Nc2cncc(-c3cnc(Nc4cccc(OC(F)F)c4)nc3)c2)C1` [Example 16, (S)-1-(3-((5-(2-((3-(difluoromethoxy)phenyl)amino)pyrimidin-5-yl)pyridin-3-yl)amino)pyrrolidin-1-yl)prop-2-en-1-one], the IC50 in experiment [1] amounted to 118 ± 56 nM.
